{
  "source": "patent US20090282496A1",
  "about": "“Androgen Receptor Related Methods for Treating Bladder Cancer” (University of Rochester Medical Center, priority 2008, published 2009)",
  "key": {"[1]": {"test_system": "UMUC3 cells", "test": "Cell proliferation assay (MTT), UMUC3", "format": "cell-based, human", "details": "UMUC3 stable subline, without androgen treatment, vs. control-siRNA"}, "[2]": {"test_system": "AR", "test": "AR knockdown in stable transfectants (RT-PCR, immunoblot)", "format": "cell-based, human", "details": "AR-siRNA-expressing TCC-SUP and UMUC3 cells vs. scrambled control-siRNA", "from_the_text": "(§1) The reporter plasmids [mouse mammary tumor virus (MMTV)-luciferase (Luc) and (ARE)4-Luc (provided by Dr. Michael L. Lu at Harvard Medical School)] as well as a retrovirus vector pMSCV/U6 (Clontech)-AR-siRNA were described in previous studies (Miyamoto et al., Int. J. Cancer, 117:866-72 (2005) and Yeh et al., J. Exp. Med. 198:1899-908 (2003)). Using SuperFect reagent (Qiagen), stable cell lines expressing the AR-siRNA were established by transfecting pMSCV/U6-AR-siRNA into Phi-NX packaging retrovirus producer cells (developed by the Nolan Lab at Stanford University). The target cells (i.e., TCC-SUP, UMUC3, and 5637) were then cultured in the presence of the viral supernatant, and infected cells were selected with puromycin (Sigma).\nTotal RNA from mouse bladder and xenograft tumor tissues and cultured cells was extracted by the acid guanidinium-phenol-chloroform method as previously described (Miyamoto et al., Cancer, 75:2565-70 (1995)) or by using Trizol reagent (Life Science). […] Using the iCycler (Bio-Rad) and the methods previously described by Miyoshi et al., Prostate, 56:280-6 (2003), real-time quantitative PCR analysis of AR, basic fibroblast growth factor (bFGF), vascular endothelial growth factor (VEGF), and matrix metalloproteinase-9 (MMP-9) was performed on the tissue samples from mouse xenograft tumors. […]"}, "[3]": {"test_system": "TCC-SUP and UMUC3 stable sublines (control-siRNA, AR-siRNA)", "test": "Tumor incidence (tumorigenicity) study of control-siRNA and AR-siRNA sublines in nude mice", "format": "in vivo, male athymic nude mouse", "details": "vs. control-siRNA cells with control treatment; treatment from tumor cell implantation; tumor positive at 40 mm3", "from_the_text": "as §1\nBladder cancer cell lines (TCC-SUP, UMUC3, and 5637) were harvested, washed twice with PBS, and resuspended in Matrigel (BD Bioscience) at a final concentration of 1×10^7 cells/mL. Cells (1×10^6 cells in 100 μl per site) were then injected subcutaneously into the right and left flanks of 6-week-old male athymic nude mouse. Treatment (castration or sham surgery, flutamide [0.5 mg/mouse] or placebo pellet injection, and the recently developed anti-AR molecule ASC-J9 (50 mg/Kg or DMSO injection) (Ohtsu et al., J. Med. Chem., 45:5037-42 (2002)) was initiated either (1) at the same time as tumor cell injection (for tumor incidence studies, n=8 mice in each group) or (2) when the sizes of all tumors reached 40 mm^3 (for tumor progression studies, n=12 tumors from 6 mice in each group). Hormonal pellets were replaced as required (every 90 days). Tumor weight was calculated by the following formula: tumor weight (mg)=tumor length (mm)×[tumor width (mm)]^2×0.5 (Geram et al., Cancer Chemother. Rep., 3:47-52 (1972)). Using calipers, each tumor was measured twice a week until either the tumor size reached 40 mm^3 (for tumor incidence study) (Chen et al., Nat. Med., 10:33-9 (2004)), or until the tumor exceeded 10% of the animal's body weight, at which time the mouse was killed (for tumor progression study)."}, "[4]": {"test_system": "TCC-SUP cells", "test": "Cell proliferation assay (MTT), TCC-SUP", "format": "cell-based, human", "details": "TCC-SUP stable subline, without androgen treatment, vs. control-siRNA"}},
  "data": [
    {"substance": "AR-siRNA: siRNA against AR expressed from retrovirus vector pMSCV/U6-AR-siRNA; knocks down the AR in mammalian cells (guide GGGCCCCTGGATGGATAGCTACCTCGAGGTAGCTATCCATCCAGGGGCC; listed as Homo sapiens)", "values": [
      {"measurement": "reduction of cell proliferation by AR knockdown", "setting": "[1]", "value": 15, "unit": "%"},
      {"measurement": "levels of AR mRNA and protein", "setting": "[2]", "value": "substantially lower"},
      {"measurement": "latency of tumor formation", "setting": "[3]", "value": "substantially prolonged"},
      {"measurement": "reduction of cell proliferation by AR knockdown", "setting": "[4]", "value": 20, "unit": "%"}
    ]}
  ]
}
